Assay results reported in patent US10689378B2, “Triazolopyridine compounds and uses thereof” (Novartis AG, priority 2016, dated 2020).

Legend:
EED (1-441)-His protein = target: T1, EED (1-441)-His protein (Homo sapiens, UniProt O75530); test: EED-H3K27Me3 peptide competition binding assay by AlphaScreen; conditions: read-out: (a) IC50, EED Alphascreen binding Qualified
T1 construct: 30 nM EED (1-441)-His protein
In short: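 Serially diluted compound (12 points, 3-fold) incubated 20 min with 30 nM EED(1-441)-His and 15 nM biotin-H3K27Me3(19-33) peptide in 25 mM HEPES pH 8, 0.02% Tween-20, 0.5% BSA. Ni-chelate acceptor/streptavidin donor beads (10 μg/mL each) added, 1 h rt dark; 615 nm emission normalized to controls, dose-response fit for IC50.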

[1] = target: wild type PRC2 (wtPRC2) complex (Homo sapiens, UniProt O75530); test: EED LC-MS assay (SAH production by PRC2); type: biochemical; conditions: read-out: (b) IC50, EED LC-MS Qualified
Protocol: Compounds of the present invention were assessed for their ability to inhibit PRC2 activity in a pentameric complex of EZH2, SUZ12, EED, Rbap48 and AEBP in biochemical assays. The ability of compounds of the present invention to inhibit cellular activity of PRC2 was assessed by analysing histone H3 lysine 27 methylation in human cell lines. The ability of compounds of the present invention to inhibit cancers was derived from their ability to modulate activity in human cancer cell lines bearing specific dependence to PRC2 activity to maintain cancerous growth.
Representative compounds of the present invention were serially and separately diluted 3-fold in DMSO to obtain a total of eight or twelve concentrations. Then the test compounds at each concentration (120 nL of each) were transferred by Mosquito into a 384-well Perkin Elmer ProxiPlate 384 plus plates. Solutions (6 μL) of 24 nM the wild type PRC2 (wtPRC2) complex and 2 μM SAM in reaction buffer (20 mM Tris, pH 8.0, 0.1% BSA, 0.01% Triton, 0.5 mM DTT) were added to the wells that were then incubated with the test compound for 20 min. A 6 μL solution of 3 μM of the peptide substrate H3K27Me0 (histone H3[21-44]-biotin) in reaction buffer was added to initiate each reaction. The final components in the reaction solution include 12 nM wtPRC2 complex, 1 μM SAM, and 1.5 μM H3K27me0 peptide with varying concentration of the compounds. A positive control consisted of the enzyme, 1 μM SAM and 1.5 μM substrate in the absence of the test compound, and a negative control consisted of 1 μM SAM and 1.5 μM substrate only. Each reaction was incubated at rt for 120 min, then stopped by addition of 3 μL per of quench solution (2.5% TFA with 320 nM d4-SAH). The reaction mixture was centrifuged (Eppendorf centrifuge 5810, Rotor A-4-62) for 2 min at 2000 rpm and read on an API 4000 triple quadrupole mass spec with Turbulon Spray (Applied Biosystem) coupled with Prominence UFLC (Shimadzu). The levels of SAH production were then normalized based on the values coming from the positive and negative controls to give percent enzyme activities. The data were then fit to a dose response equation using the program Helios to get the IC50 values of the test compound.

[2] = system: H3K27 methylation in G401 cell; test: ELISA (H3K27 methylation) assay in G401 cells; type: cell-based, human; conditions: Homo sapiens, G-401, read-out: (c) IC50, ELISA Qualified
In short: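 IC50 from dose-response fit of percent inhibition relative to DMSO, using H3K27me3/me2 ELISA signal (ECL) normalized to histone H3. Histones HCl-extracted after 48 h compound exposure of G401 cells at up to 20 μM, 8- or 12-point 3-fold series.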

wild type PRC2 (wtPRC2) complex, sequence (O75530 whole entry): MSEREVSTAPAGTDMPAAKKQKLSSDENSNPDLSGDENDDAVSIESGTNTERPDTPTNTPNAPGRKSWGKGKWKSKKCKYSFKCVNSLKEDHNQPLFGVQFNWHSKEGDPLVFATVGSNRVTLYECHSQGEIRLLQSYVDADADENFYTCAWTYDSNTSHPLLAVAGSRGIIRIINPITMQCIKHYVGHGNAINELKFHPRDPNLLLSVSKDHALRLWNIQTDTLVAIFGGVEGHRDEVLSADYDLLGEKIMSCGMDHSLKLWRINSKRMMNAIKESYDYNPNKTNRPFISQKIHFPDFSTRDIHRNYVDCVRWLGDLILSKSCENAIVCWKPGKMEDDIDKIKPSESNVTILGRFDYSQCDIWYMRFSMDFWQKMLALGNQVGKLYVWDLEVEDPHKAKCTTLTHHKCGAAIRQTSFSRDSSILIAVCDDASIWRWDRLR
wild type PRC2 (wtPRC2) complex, sequence (Q15910 whole entry partner): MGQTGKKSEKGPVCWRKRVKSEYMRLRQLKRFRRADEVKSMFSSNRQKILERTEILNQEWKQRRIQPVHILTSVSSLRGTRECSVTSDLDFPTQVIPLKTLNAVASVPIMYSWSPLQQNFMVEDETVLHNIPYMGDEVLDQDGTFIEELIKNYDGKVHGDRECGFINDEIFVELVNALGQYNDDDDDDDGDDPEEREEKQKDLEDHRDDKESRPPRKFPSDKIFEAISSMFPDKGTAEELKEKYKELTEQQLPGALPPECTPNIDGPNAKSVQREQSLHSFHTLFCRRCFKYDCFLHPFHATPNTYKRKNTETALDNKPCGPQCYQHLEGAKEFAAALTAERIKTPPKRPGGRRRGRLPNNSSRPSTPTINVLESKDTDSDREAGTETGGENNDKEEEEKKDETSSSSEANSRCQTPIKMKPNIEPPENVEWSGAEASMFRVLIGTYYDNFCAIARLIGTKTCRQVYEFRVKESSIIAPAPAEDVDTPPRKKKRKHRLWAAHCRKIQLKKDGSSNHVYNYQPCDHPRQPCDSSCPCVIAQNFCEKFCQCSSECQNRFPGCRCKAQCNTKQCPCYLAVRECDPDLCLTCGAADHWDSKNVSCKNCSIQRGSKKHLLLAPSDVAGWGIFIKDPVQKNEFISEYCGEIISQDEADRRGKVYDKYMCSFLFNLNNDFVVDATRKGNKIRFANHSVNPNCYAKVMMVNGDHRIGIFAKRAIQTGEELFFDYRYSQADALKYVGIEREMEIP
wild type PRC2 (wtPRC2) complex, sequence (Q15022 whole entry partner): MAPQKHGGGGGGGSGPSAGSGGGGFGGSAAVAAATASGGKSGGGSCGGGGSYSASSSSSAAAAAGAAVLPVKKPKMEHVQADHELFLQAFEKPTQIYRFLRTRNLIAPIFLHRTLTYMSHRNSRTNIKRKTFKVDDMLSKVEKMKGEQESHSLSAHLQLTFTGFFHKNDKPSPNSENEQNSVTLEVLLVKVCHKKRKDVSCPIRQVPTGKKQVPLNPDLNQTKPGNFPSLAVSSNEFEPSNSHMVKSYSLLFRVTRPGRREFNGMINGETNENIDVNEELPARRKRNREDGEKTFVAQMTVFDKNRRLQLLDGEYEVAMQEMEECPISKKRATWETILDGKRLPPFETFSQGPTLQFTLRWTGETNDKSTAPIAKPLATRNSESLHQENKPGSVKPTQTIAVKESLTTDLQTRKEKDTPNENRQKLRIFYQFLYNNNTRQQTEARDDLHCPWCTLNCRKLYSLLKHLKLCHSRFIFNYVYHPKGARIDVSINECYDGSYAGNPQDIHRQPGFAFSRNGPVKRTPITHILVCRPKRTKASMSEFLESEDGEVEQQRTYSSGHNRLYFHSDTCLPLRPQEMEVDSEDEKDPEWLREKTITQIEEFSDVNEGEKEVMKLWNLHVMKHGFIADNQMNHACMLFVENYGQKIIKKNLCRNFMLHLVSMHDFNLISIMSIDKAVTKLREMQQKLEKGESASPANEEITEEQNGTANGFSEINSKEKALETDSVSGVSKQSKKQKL
wild type PRC2 (wtPRC2) complex, sequence (Q09028 whole entry partner): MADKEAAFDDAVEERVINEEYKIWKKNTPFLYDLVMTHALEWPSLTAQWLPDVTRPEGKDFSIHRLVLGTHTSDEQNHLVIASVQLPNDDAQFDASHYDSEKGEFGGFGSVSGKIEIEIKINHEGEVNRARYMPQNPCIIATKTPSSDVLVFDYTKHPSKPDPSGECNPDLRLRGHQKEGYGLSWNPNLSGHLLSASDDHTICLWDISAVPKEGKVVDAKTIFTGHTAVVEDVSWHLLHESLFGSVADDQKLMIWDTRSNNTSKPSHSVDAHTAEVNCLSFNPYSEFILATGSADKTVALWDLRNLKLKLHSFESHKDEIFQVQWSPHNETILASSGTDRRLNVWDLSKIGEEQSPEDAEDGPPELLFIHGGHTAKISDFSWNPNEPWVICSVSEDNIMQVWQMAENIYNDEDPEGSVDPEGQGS
wild type PRC2 (wtPRC2) complex, sequence (Q6ZN18 whole entry partner): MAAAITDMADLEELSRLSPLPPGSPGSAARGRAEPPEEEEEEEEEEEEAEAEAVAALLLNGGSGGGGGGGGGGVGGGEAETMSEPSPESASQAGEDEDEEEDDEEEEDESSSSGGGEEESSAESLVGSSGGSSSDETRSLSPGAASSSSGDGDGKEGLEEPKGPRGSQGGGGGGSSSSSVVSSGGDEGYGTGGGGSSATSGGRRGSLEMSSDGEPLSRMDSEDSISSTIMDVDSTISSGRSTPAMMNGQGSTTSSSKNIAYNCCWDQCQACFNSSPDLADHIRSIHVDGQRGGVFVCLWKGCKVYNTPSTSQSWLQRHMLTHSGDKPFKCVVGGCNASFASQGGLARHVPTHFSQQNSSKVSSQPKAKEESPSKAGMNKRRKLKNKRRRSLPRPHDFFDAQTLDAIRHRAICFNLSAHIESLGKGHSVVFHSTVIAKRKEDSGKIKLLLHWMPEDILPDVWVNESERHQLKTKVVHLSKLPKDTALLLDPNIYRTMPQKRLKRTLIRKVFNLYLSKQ
T1 sequence (O75530 whole entry): as the sequence (O75530 whole entry) above

Compound	IC50 (EED (1-441)-His protein) [nM]	IC50 [1] [nM]	IC50 [2] [nM]
COc1ccccc1CNc1ccc(-c2cc(F)c(CN3CCCCC3)c(F)c2)c2nncn12 [Example 44, 8-(3,5-difluoro-4-(piperidin-1-ylmethyl)phenyl)-N-(2-methoxybenzyl)-[1,2,4] triazolo[4,3-a]pyridin-5-amine]	74.8	1100	112
COc1cccc(F)c1CNc1ccc(-c2ccc(CN(C)C)cc2)c2nncn12 [Example 45, 8-(4-((dimethylamino)methyl)phenyl)-N-(2-fluoro-6-methoxybenzyl)-[1,2,4] triazolo[4,3-a]pyridin-5-amine]	17.7	23.3	7.6
COc1ccccc1CNc1ccc(-c2ccccc2F)c2nncn12 [Example 47, 8-(2-fluorophenyl)-N-(2-methoxybenzyl)-[1,2,4] triazolo[4,3-a]pyridin-5-amine]	98.5	1330	293
COc1ccccc1CNc1ccc(-c2cnc(OC)c(F)c2)c2nncn12 [Example 50, 8-(5-fluoro-6-methoxypyridin-3-yl)-N-(2-methoxybenzyl)-[1,2,4]triazolo[4,3-a] pyridin-5-amine]	91.5	3190	374
COc1ncc(-c2ccc(NCc3ccccc3OC)n3cnnc23)cn1 [Example 52, N-(2-methoxybenzyl)-8-(2-methoxypyrimidin-5-yl)-[1,2,4]triazolo[4,3-a]pyridin-5-amine]	89.4	735	106
COc1ccccc1CNc1ccc(-c2ccc(S(=O)(=O)C3CCNCC3)cc2)c2nncn12 [Example 53, N-(2-methoxybenzyl)-8-(4-(piperidin-4-ylsulfonyl)phenyl)-[1,2,4]triazolo[4,3-a] pyridin-5-amine]	27.9	144	36.5
COc1ccccc1CNc1ccc(-c2ccc(CN3CC(F)(F)C3)cc2)c2nncn12 [Example 54, 8-(4-((3,3-difluoroazetidin-1-yl)methyl)phenyl)-N-(2-methoxybenzyl)-[1,2,4] triazolo[4,3-a]pyridin-5-amine]	19	230	56.6
CCS(=O)(=O)c1ccc(-c2ccc(NCc3ccccc3OC)n3cnnc23)cc1 [Example 56, 8-(4-(ethylsulfonyl)phenyl)-N-(2-methoxybenzyl)-[1,2,4]triazolo[4,3-a]pyridin-5-amine]	33	130	88.5
COc1ccccc1CNc1ccc(-c2ccc(S(=O)(=O)C(C)C)cc2)c2nncn12 [Example 57, 8-(4-(isopropylsulfonyl)phenyl)-N-(2-methoxybenzyl)-[1,2,4]triazolo[4,3-a] pyridin-5-amine]	15.9	183	39.5
COc1ccccc1CNc1ccc(-c2ccc(S(C)(=O)=O)nc2)c2nncn12 [Example 61, N-(2-methoxybenzyl)-8-(6-(methylsulfonyl)pyridin-3-yl)-[1,2,4]triazolo[4,3-a] pyridin-5-amine]	43.8	538	61.9
COc1ccccc1CNc1ccc(-c2c(C)noc2C)c2nncn12 [Example 62, 8-(3,5-dimethylisoxazol-4-yl)-N-(2-methoxybenzyl)-[1,2,4]triazolo[4,3-a]pyridin-5-amine]	43.6	321	66.7
COc1ccccc1CNc1ccc(-c2ccc(C(C)=O)cc2)c2nncn12 [Example 63, 1-(4-(5-((2-methoxybenzyl)amino)-[1,2,4]triazolo[4,3-a]pyridin-8-yl)phenyl) ethanone]	76.8	1700	275
COc1ccccc1CNc1ccc(-c2ccc(C(N)=O)c(Cl)c2)c2nncn12 [Example 64, 2-chloro-4-(5-((2-methoxybenzyl)amino)-[1,2,4]triazolo[4,3-a]pyridin-8-yl) benzamide]	31.7	914	126
COc1ccccc1CNc1ccc(-c2ccc(CN3CC(F)C3)cc2)c2nncn12 [Example 66, 8-(4-((3-fluoroazetidin-1-yl)methyl)phenyl)-N-(2-methoxybenzyl)-[1,2,4] triazolo[4,3-a]pyridin-5-amine]	11.8	252	29.9
COc1ccccc1CNc1ccc(-c2ccnc(N3CCN(C)CC3)c2)c2nncn12 [Example 67, N-(2-methoxybenzyl)-8-(2-(4-methylpiperazin-1-yl)pyridin-4-yl)-[1,2,4] triazolo[4,3-a]pyridin-5-amine]	54.6	197	45
COc1ccccc1CNc1ccc(-c2ccc(S(=O)(=O)N3CCCC3)cc2)c2nncn12 [Example 68, N-(2-methoxybenzyl)-8-(4-(pyrrolidin-1-ylsulfonyl)phenyl)-[1,2,4]triazolo[4,3-a] pyridin-5-amine]	16.7	311	49.7
CCN1CCN(c2ccc(-c3ccc(NCc4ccccc4OC)n4cnnc34)cn2)CC1 [Example 69, 8-(6-(4-ethylpiperazin-1-yl)pyridin-3-yl)-N-(2-methoxybenzyl)-[1,2,4]triazolo[4,3-a] pyridin-5-amine]	28.2	304	73.7
COc1ccccc1CNc1ccc(-c2ccc(CN(C)C)cc2F)c2nncn12 [Example 70, 8-(4-((dimethylamino)methyl)-2-fluorophenyl)-N-(2-methoxybenzyl)-[1,2,4] triazolo[4,3-a]pyridin-5-amine]	37.6	188	334
COc1ccccc1CNc1ccc(-c2ccc(C(=O)N(C)C)cc2F)c2nncn12 [Example 71, 3-fluoro-4-(5-((2-methoxybenzyl)amino)-[1,2,4]triazolo[4,3-a]pyridin-8-yl)-N,N-dimethylbenzamide]	34.9	275	43.4
COc1ccccc1CNc1ccc(-c2ccc(C(N)=O)cc2)c2nncn12 [Example 72, 4-(5-((2-methoxybenzyl)amino)-[1,2,4]triazolo[4,3-a]pyridin-8-yl)benzamide]	12.9	1010	43.3
COc1ccccc1CNc1ccc(-c2ccc(S(N)(=O)=O)cc2)c2nncn12 [Example 73, 4-(5-((2-methoxybenzyl)amino)-[1,2,4]triazolo[4,3-a]pyridin-8-yl)benzene sulfonamide]	45.2	236	397
COc1ccccc1CNc1ccc(-c2ccc(Cn3ccnc3)cc2)c2nncn12 [Example 76, 8-(4-((1H-imidazol-1-yl)methyl)phenyl)-N-(2-methoxybenzyl)-[1,2,4] triazolo[4,3-a]pyridin-5-amine]	41.9	420	133
COc1ccccc1CNc1ccc(-c2ccc(N3CCN(C(C)C)CC3)cc2)c2nncn12 [Example 77, 8-(4-(4-isopropylpiperazin-1-yl)phenyl)-N-(2-methoxybenzyl)-[1,2,4]triazolo[4,3-a] pyridin-5-amine]	14.6	106	21.7
COc1cccc(F)c1CNc1ccc(-c2ccc(S(C)(=O)=O)cc2)c2nncn12 [Example 78, N-(2-fluoro-6-methoxybenzyl)-8-(4-(methylsulfonyl)phenyl)-[1,2,4]triazolo[4,3-a]pyridin-5-amine]	18	75.1	26.1
COc1ccccc1CNc1ccc(-c2ccc(NS(C)(=O)=O)cc2)c2nncn12 [Example 82, N-(4-(5-((2-methoxybenzyl)amino)-[1,2,4]triazolo[4,3-a]pyridin-8-yl)phenyl) methanesulfonamide]	80.3	509	330
